# Experimental data taken from the NIST ThermoML archive (doi:10.1016/j.fluid.2015.12.007).
# ± gives the expanded uncertainty stated by the source.
# Settings: 101.33 kPa, Liquid; for speed of sound: Sing-around technique in a fixed-path interferometer; for mass density: Vibrating tube method
Structure (SMILES),speed of sound (293.15 K) [m/s],mass density (293.15 K) [kg/m3],speed of sound (298.15 K) [m/s],mass density (298.15 K) [kg/m3],speed of sound (303.15 K) [m/s],mass density (303.15 K) [kg/m3],speed of sound (308.15 K) [m/s],mass density (308.15 K) [kg/m3],speed of sound (313.15 K) [m/s],mass density (313.15 K) [kg/m3],speed of sound (318.15 K) [m/s],mass density (318.15 K) [kg/m3]
CCCC[n+]1ccn(C)c1.O=S(=O)([N-]S(=O)(=O)C(F)(F)F)C(F)(F)F,1238.6 ± 1.2,1440.81 ± 0.23,1227.4 ± 1.2,1435.99 ± 0.23,1216.3 ± 1.2,1431.2 ± 0.22,1205.4 ± 1.2,1426.42 ± 0.22,1194.7 ± 1.2,1421.66 ± 0.22,1184.1 ± 1.2,1416.91 ± 0.22
CCCCn1cc[n+](C)c1.COS(=O)(=O)[O-] [1-butyl-3-methylimidazolium methyl sulfate],1669.8 ± 3.2,1211.97 ± 2.8,1657.1 ± 3.2,1208.61 ± 2.8,1644.6 ± 3.2,1205.25 ± 2.8,1632.4 ± 3.2,1201.89 ± 2.8,1620.4 ± 3.2,1198.54 ± 2.8,1608.8 ± 3.2,1195.2 ± 2.8
CCCCn1cc[n+](C)c1.F[B-](F)(F)F [1-butyl-3-methylimidazolium tetrafluoroborate],1576.6 ± 1.2,1204.89 ± 0.15,1564.9 ± 1.2,1201.33 ± 0.15,1553.6 ± 1.2,1197.78 ± 0.15,1542.2 ± 1.2,1194.23 ± 0.15,1530.9 ± 1.2,1190.7 ± 0.15,1520 ± 1.2,1187.18 ± 0.15
"CC(O)CO (stereo not drawn) [1,2-propanediol]",1516.4 ± 1.3,1035.73 ± 0.14,1505.9 ± 1.3,1032.03 ± 0.13,1493.3 ± 1.3,1028.31 ± 0.13,1480 ± 1.3,1024.55 ± 0.13,1466.3 ± 1.3,1020.75 ± 0.13,1452.7 ± 1.3,1016.92 ± 0.13
